The text below walks through data of patent US20230142077A1, “COMPOSITION FOR PROMOTING ANGIOGENESIS USING LIQUID TYPE PLASMA AND METHOD FOR PROMOTING ANGIOGENESIS USING SAME” (AJOU UNIVERSITY INDUSTRY-ACADEMIC COOPERATION FOUNDATION, priority 2021, published 2023).

Format in all cases: cell-based, Human
For assay [1], the system named is intracellular nitric oxide (NO) in HUVECs. Briefly: Intracellular NO production analysis (DAF-FM probe). The note with it: L-NMMA (10 μM) with NTS, FIG. 6B. As to the method:
Nitric oxide (NO) levels were confirmed by measuring fluorescence changes in 4-amino-5-methylamino-2′,7′-difluorofluorescein diacetate (DAF-FMDA, Thermo Fisher, D23844, Eugene, Oreg., USA) due to oxidation, respectively. Cells were cultured with reagents according to the manufacturer's instructions. Changes in DAF-FM fluorescence were measured by flow cytometry (BD Biosciences) and a fluorescence microscope (EVOS FL Auto, Thermo Fisher) after 24 hours. NG-methyl-L-arginine acetate salt (L-NMMA, Sigma, M7033) was used to suppress the production of nitric oxide (NO).

The test system of assay [2] is HUVEC tube formation. Briefly: Tube formation analysis on Matrigel. The note with it: L-NMMA (10 μM) with NTS, FIG. 6C. As to the method: HUVEC cells were trypsinized and then seeded onto a 96-well plate (2×10^4/well) pre-coated with 40 μl (10 mg/ml) of growth factor-reduced Matrigel (BD Biosciences, Billerica, Mass.) in an EBM2 medium.
After incubation at 37° C. for 30 minutes, 1 hour, 3 hours, and 6 hours, viable cells were detected by staining with Calcein AM (Trevigen, Gaithersburg, Md.), and then a capillary-like structure was imaged using EVOS FL Auto (ThermoFisher). Data in the images was quantified with National Institutes of Health (NIH) ImageJ 1.41q software.

In assay [3] the test system is eNOS (S1177). Briefly: Western blot, phosphorylated eNOS. The settings on record: FIG. 6A. The protocol: Western blot was performed using a known method. Cells were lysed in a RIPA buffer (Sigma Aldrich) including 150 mM NaCl, 1.0% Nonidet-P 40, 0.5% sodium deoxycholate, 0.1% sodium dodecyl sulfate, 50 mM Tri (pH 8.0), a protease inhibitor cocktail and PhoSTOP (Roche Molecular Biochemicals, Basel, Switzerland).
A primary antibody used in the present experiment was purchased from Cell Signaling (Danvers, Mass., USA) and VE-cadherin, p-LKB1, and LKB1 were purchased from Santa Cruz (Cambridge, UK). A secondary antibody (anti-rabbit IgG or anti-mouse IgG, 1:2000) was purchased from Cell Signaling Technology.
Data in the images was quantified with National Institutes of Health (NIH) ImageJ 1.41q software.
For orientation: A western blot detects proteins with antibodies after separation by electrophoresis.

Assay [4] concerns MMP-2. Briefly: Gelatin zymogram analysis. The settings on record: L-NMMA with NTS, FIG. 6F. As to the method:
Matrix metalloproteases were analyzed using a known gelatin zymography method. The cells according to Example 2-1 were cultured in a 6-well plate (Corning Scientific, Rochester, N.Y., USA) and treated with NTS (60 sec/ml) or a vehicle control. Thereafter, the supernatant (100 μl) of each sample was mixed with 1 μl of 100 mM 4-aminophenylmercuric acetate (Sigma-Aldrich), and the sample was incubated at 37° C. for 1 hour. After each sample was placed in a sample buffer (excluding 2-mercaptoethanol) for 10 minutes, the samples were electrophoresed on an a 8% polyacrylamide gel containing 1% gelatin.
The gel was incubated at room temperature for 60 minutes in a regeneration buffer, and then incubated in 100 ml of a development buffer at 37° C. with gentle shaking. Thereafter, the gel was stained with Coomassie Brilliant Blue for 3 hours. After destaining with 400 ml of a destaining solution (methanol, 100 ml of acetic acid, 500 ml of distilled water), images were obtained using an image analyzer.

The test system of assay [5] is VE-cadherin. The experiment in a line: Immunocytochemical analysis, VE-cadherin. The settings on record: NTS+L-NMMA, FIG. 6G. The protocol:
Immunocytochemical analysis was performed using a known method. The cells cultured according to Example 2-1 were additionally cultured on coverslips (Thermo Fisher Scientific, Rochester, N.Y., USA) and treated with NTS (60 sec/ml) or a vehicle control.
The coverslips were then treated with polyclonal rabbit anti-LC3B, p-FAK, and VE-Cadherin (1:200; Cell Signaling Technology, Danvers, Mass., USA), incubated for 2 hours, washed with PBS, and then incubated with an Alexa 488-labeled antibody for 1 hour.
Thereafter, after being washed three times with PBS, the slides were stained with Hoechst 33258 (Molecular Probe), and phalloidin (1:50; Molecular Probes, R415) was added thereto for 15 minutes to counterstain nuclei and F-actin. The stained coverslips were washed with PBS, mounted with Vectashield (Vector Laboratories, Inc., Burlingame, Calif., USA), and then analyzed using EVOS FL Auto (Thermo Fisher).

For the compound `CC(=O)O.CNC(=N)NCCC[C@H](N)C(=O)O` [L-NMMA, NG-methyl-L-arginine acetate salt], the “intracellular nitric oxide by NTS” value in assay [1] is “significantly reduced”. For the same compound, the “tubular network formed by NTS” value in assay [2] is “significantly disrupted”. The “p-eNOS phosphorylation by NTS” value in assay [3] (L-NMMA (10 μM) with NTS) was “significantly reduced”. Also, in assay [3] (L-NMMA, 1 mM), the “phosphorylation of eNOS upregulated by NTS” value was “significantly attenuated”. The “NTS-activated MMP2” value in assay [4] is reported as “significantly attenuated”. Further, in assay [5], the “NTS-induced reduction of VE-cadherin expression” value is listed as “significantly attenuated”.
